From ChEMBL document CHEMBL1153482, “Design of selective Cathepsin inhibitors” (Bioorg Med Chem Lett, 2009)

Tests used:
Cathepsin K = molecular target: T1, Cathepsin K (Homo sapiens, UniProt P43235); assay: Inhibition of cathepsin K assessed as inhibition of fluorogenic substrate cleavage
T1 sequence (P43235 whole entry): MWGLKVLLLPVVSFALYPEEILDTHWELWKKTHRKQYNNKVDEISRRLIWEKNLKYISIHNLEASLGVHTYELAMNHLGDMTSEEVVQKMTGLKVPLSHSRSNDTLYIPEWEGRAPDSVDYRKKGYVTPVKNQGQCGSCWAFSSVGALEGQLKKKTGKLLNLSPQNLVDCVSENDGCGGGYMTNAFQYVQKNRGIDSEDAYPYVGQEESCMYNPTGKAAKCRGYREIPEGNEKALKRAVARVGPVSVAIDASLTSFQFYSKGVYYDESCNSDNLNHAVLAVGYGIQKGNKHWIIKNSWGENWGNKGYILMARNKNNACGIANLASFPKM

Cathepsin S = Cathepsin S (Homo sapiens, UniProt P25774); assay: Inhibition of cathepsin S assessed as inhibition of fluorogenic substrate cleavage
Procathepsin L = Procathepsin L (Homo sapiens, UniProt P07711); assay: Inhibition of cathepsin L assessed as inhibition of fluorogenic substrate cleavage
Cathepsin B = Cathepsin B (Homo sapiens, UniProt P07858); assay: Inhibition of human liver cathepsin B assessed as inhibition of fluorogenic substrate cleavage
Cathepsin L2 = molecular target: T2, Cathepsin L2 (Homo sapiens, UniProt O60911); assay: Inhibition of cathepsin L2 assessed as inhibition of fluorogenic substrate cleavage
T2 sequence (O60911 whole entry): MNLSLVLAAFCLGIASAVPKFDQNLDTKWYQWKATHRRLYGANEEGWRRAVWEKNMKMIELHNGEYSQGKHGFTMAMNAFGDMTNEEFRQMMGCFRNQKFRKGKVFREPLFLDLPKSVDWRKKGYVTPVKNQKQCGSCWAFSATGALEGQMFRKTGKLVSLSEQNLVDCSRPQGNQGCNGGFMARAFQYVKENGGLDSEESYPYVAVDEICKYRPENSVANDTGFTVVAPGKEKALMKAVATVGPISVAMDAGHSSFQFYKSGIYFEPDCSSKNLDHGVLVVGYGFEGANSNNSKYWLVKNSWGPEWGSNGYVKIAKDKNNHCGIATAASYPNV

Chain of Procathepsin L (P07711 whole entry): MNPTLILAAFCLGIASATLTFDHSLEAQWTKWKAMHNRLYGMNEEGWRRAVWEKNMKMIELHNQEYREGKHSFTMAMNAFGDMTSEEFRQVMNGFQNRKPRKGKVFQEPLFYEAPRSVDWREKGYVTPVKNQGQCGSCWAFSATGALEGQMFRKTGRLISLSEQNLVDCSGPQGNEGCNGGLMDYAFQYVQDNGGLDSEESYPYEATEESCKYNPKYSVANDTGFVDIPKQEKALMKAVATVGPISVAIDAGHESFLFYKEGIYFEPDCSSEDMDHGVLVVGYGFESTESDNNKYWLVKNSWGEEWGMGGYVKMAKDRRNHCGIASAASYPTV
Chain of Cathepsin S (P25774 whole entry): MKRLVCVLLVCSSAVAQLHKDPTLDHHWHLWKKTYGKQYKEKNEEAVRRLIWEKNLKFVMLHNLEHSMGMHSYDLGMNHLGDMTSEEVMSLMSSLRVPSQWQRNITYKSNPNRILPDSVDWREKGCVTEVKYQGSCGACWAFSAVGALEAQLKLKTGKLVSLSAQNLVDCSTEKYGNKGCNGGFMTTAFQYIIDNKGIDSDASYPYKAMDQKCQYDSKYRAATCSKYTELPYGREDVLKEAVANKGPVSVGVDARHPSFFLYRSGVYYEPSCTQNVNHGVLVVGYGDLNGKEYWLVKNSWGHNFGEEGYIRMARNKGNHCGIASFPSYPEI

Structure (SMILES)	IC50 (Cathepsin K)	IC50 (Cathepsin S)	IC50 (Procathepsin L)	IC50 (Cathepsin B)	IC50 (Cathepsin L2)
N#CCNC(=O)[C@H](Cc1cccc(-c2cccnc2)c1)NC(=O)c1ccccc1	> 7940 nM	126 nM	2000 nM	7940 nM	3980 nM
N#CCNC(=O)[C@H](Cc1cccc(Cl)c1)NC(=O)c1ccccc1	3160 nM	126 nM	251 nM	5010 nM	794 nM
N#CCNC(=O)[C@H](Cc1cccc(-c2cncnc2)c1)NC(=O)c1ccccc1	> 7940 nM	316 nM	3980 nM	> 10000 nM	> 7940 nM
N#CCNC(=O)[C@H](Cc1cccc(-c2ccccn2)c1)NC(=O)c1ccccc1	> 10000 nM	631 nM	3160 nM	6310 nM	> 10000 nM
N#CCNC(=O)[C@H](Cc1cccc(-c2cccnn2)c1)NC(=O)c1ccccc1	> 6310 nM	7.94 nM	1260 nM	6310 nM	63.1 nM
N#CCNC(=O)[C@H](Cc1cccc(-c2ccncc2)c1)NC(=O)c1ccccc1	> 10000 nM	251 nM	1580 nM	> 10000 nM	3160 nM
Cn1nccc1-c1cccc(C[C@H](NC(=O)c2ccccc2)C(=O)NCC#N)c1	> 10000 nM	316 nM	3160 nM	7940 nM	3160 nM
Cn1cc(-c2cccc(C[C@H](NC(=O)c3ccccc3)C(=O)NCC#N)c2)cn1	> 10000 nM	100 nM	501 nM	6310 nM	1580 nM
N#CCNC(=O)[C@H](Cc1cccc(-c2cn[nH]c2)c1)NC(=O)c1ccccc1	> 10000 nM	79.4 nM	794 nM	7940 nM	1580 nM
Cc1nnc(-c2cccc(C[C@H](NC(=O)c3cc(C(C)(C)C)nn3C)C(=O)NCC#N)c2)s1	3160 nM	316 nM	126 nM	> 10000 nM	3.16 nM
N#CCNC(=O)[C@H](Cc1cccc(-c2ccn[nH]2)c1)NC(=O)c1ccccc1	> 10000 nM	316 nM	1580 nM	5010 nM	3980 nM
Cn1cc(-c2cccc(C[C@H](NC(=O)c3cc(C(C)(C)C)nn3C)C(=O)NCC#N)c2)cn1	6310 nM	316 nM	15.8 nM	> 10000 nM	158 nM
N#CCNC(=O)[C@H](Cc1cccc(-c2ccnnc2)c1)NC(=O)c1ccccc1	> 10000 nM	794 nM	> 7940 nM	> 10000 nM	> 10000 nM
Cn1nc(C(C)(C)C)cc1C(=O)N[C@@H](Cc1cccc(Cl)c1)C(=O)NCC#N	3160 nM	1000 nM	12.6 nM	6310 nM	200 nM
N#CCNC(=O)[C@H](Cc1cccc(-c2nnco2)c1)NC(=O)c1ccccc1	1260 nM	20 nM	501 nM	> 10000 nM	158 nM
Cc1cccc(C[C@H](NC(=O)c2cc(C(C)(C)C)nn2C)C(=O)NCC#N)c1	2510 nM	794 nM	–	3980 nM	398 nM

Stronger by IC50 (Cathepsin K), values ahead:

IC50 (Cathepsin K)	IC50 (Cathepsin S)	IC50 (Procathepsin L)	IC50 (Cathepsin B)	IC50 (Cathepsin L2)	Structure (SMILES)
126 nM	15.8 nM	5.01 nM	> 10000 nM	6.31 nM	Cn1nc(C(C)(C)C)cc1C(=O)N[C@@H](Cc1cccc(-c2nncs2)c1)C(=O)NCC#N
100 nM	63.1 nM	6.31 nM	> 10000 nM	7.94 nM	Cn1nc(C(C)(C)C)cc1C(=O)N[C@@H](Cc1cccc(-c2nnc(CO)o2)c1)C(=O)NCC#N
63.1 nM	79.4 nM	5.01 nM	> 10000 nM	6.31 nM	Cc1nnc(-c2cccc(C[C@H](NC(=O)c3cc(C(C)(C)C)nn3C)C(=O)NCC#N)c2)o1
126 nM	79.4 nM	3.98 nM	> 10000 nM	2 nM	COCc1nnc(-c2cccc(C[C@H](NC(=O)c3cc(C(C)(C)C)nn3C)C(=O)NCC#N)c2)o1
158 nM	63.1 nM	1.26 nM	6310 nM	100 nM	Cn1nc(C(C)(C)C)cc1C(=O)N[C@@H](Cc1cccc(-c2nnc(CCN)o2)c1)C(=O)NCC#N
1000 nM	200 nM	2 nM	3980 nM	39.8 nM	Cn1nc(C(C)(C)C)cc1C(=O)N[C@@H](Cc1cccc(-c2nnc(CN)o2)c1)C(=O)NCC#N
631 nM	2.51 nM	200 nM	> 10000 nM	25.1 nM	N#CCNC(=O)[C@H](Cc1cccc(-c2nncs2)c1)NC(=O)c1ccccc1
126 nM	63.1 nM	15.8 nM	> 10000 nM	20 nM	Cn1nc(C(C)(C)C)cc1C(=O)N[C@@H](Cc1cccc(-c2nnco2)c1)C(=O)NCC#N
